# Read-outs that look alike come from different tables or passages of the source.
# How the values were obtained:
# [1] = Loss of PPTN due to adherence to surfaces of vessels; assay type: physicochemical; settings: 200 ng/ml PPTN, no solubilizing agent, 24 hours
# Protocol: The loss of PPTN due to adherence to surfaces of vessels was analyzed. PPTN is a hydrophobic compound that may adhere to plastics and other surfaces. To test how much PPTN is lost due to surface adhesion, an aqueous solution containing 200 ng/ml PPTN and less than 0.1% acetonitrile was incubated in the absence of solubilizing agent in various vessels for 24 hours. […]
# [2] = Plasma concentrations during 24-hour continuous intravenous infusion; assay type: in vivo, Sprague-Dawley rats; settings: for Female/Male C24h Ratio: 24-hour intravenous infusion; for concentration at 1 h / concentration at 2 h / concentration at 4 h / concentration at 6 h / concentration at 8 h / concentration at 24 h: Sprague-Dawley, rat, plasma, iv
# Protocol: The safety and pharmacokinetics of PPTN (KB-1801) in rats receiving continuous intravenous injections of SBECD-containing solutions were analyzed. Three cohorts of six male and six female rats each were given continuous intravenous infusion of PPTN (KB-1801) at 10 mg/kg/day, 30 mg/kg/day or 100 mg/kg/day in a dosing solution containing PPTN at 0.25 mg/mL, 0.75 mg/mL or 2.5 mg/mL and SBECD at about 3.8%. Dosing volume was 40 mIkg/day. [table]
# [3] = female, 10 mg/kg, female Sprague-Dawley rats, 24-hour intravenous infusion at 10 mg/kg, read-out: Plasma concentration, Mean
# [4] = female, 10 mg/kg, female Sprague-Dawley rats, 24-hour intravenous infusion at 10 mg/kg, read-out: Plasma concentration, individual animal
# [5] = female, 30 mg/kg, female Sprague-Dawley rats, 24-hour intravenous infusion at 30 mg/kg, read-out: Plasma concentration, Mean
# [6] = female, 30 mg/kg, female Sprague-Dawley rats, 24-hour intravenous infusion at 30 mg/kg, read-out: Plasma concentration, individual animal
# [7] = female, 100 mg/kg, female Sprague-Dawley rats, 24-hour intravenous infusion at 100 mg/kg, read-out: Plasma concentration, Mean
# [8] = female, 100 mg/kg, female Sprague-Dawley rats, 24-hour intravenous infusion at 100 mg/kg, read-out: Plasma concentration, individual animal
# [9] = male, 10 mg/kg, male Sprague-Dawley rats, 24-hour intravenous infusion at 10 mg/kg, read-out: Plasma concentration, Mean
# [10] = male, 10 mg/kg, male Sprague-Dawley rats, 24-hour intravenous infusion at 10 mg/kg, read-out: Plasma concentration, individual animal
compound,measurement,setting,value
"O=C(O)c1cc(-c2ccc(C3CCNCC3)cc2)c2ccc(-c3ccc(C(F)(F)F)cc3)cc2c1 [KB-1801, 4-[4-(piperidin-4-yl)phenyl]-7-[4-(trifluoromethyl)phenyl]-2-naphthoic acid]",% recovery vs. control,[1]; Corning pipette tip,22%
same,% recovery vs. standard,[1]; Corning pipette tip,6%
same,% recovery vs. control,[1]; Eppendorf clear conical tube,19%
same,% recovery vs. standard,[1]; Eppendorf clear conical tube,5%
same,% recovery vs. control,[1]; Eppendorf orange conical tube,25%
same,% recovery vs. standard,[1]; Eppendorf orange conical tube,6%
same,% recovery vs. control,[1]; Versilon SE200 Tygon tubing,8%
same,% recovery vs. standard,[1]; Versilon SE200 Tygon tubing,2%
same,% recovery vs. control,[1]; polyetheretherketone tubing,22%
same,% recovery vs. standard,[1]; polyetheretherketone tubing,6%
same,Female/Male C24h Ratio,"[2]; Group 6, 10 mg/kg",1.36
same,Female/Male C24h Ratio,"[2]; Group 7, 30 mg/kg",0.88
same,Female/Male C24h Ratio,"[2]; Group 8, 100 mg/kg",0.93
same,concentration at 1 h,[2]; [3],216 ng/mL
same,concentration at 2 h,[2]; [3],281 ng/mL
same,concentration at 2 h,[2]; [4],383 ng/mL
same,concentration at 4 h,[2]; [3],426 ng/mL
same,concentration at 4 h,[2]; [4],445 ng/mL
same,concentration at 6 h,[2]; [3],569 ng/mL
same,concentration at 6 h,[2]; [4],726 ng/mL
same,concentration at 8 h,[2]; [3],526 ng/mL
same,concentration at 8 h,[2]; [4],678 ng/mL
same,concentration at 24 h,[2]; [3],954 ng/mL
same,concentration at 24 h,[2]; [4],753 ng/mL
same,concentration at 1 h,[2]; [5],641 ng/mL
same,concentration at 1 h,[2]; [6],603 ng/mL
same,concentration at 2 h,[2]; [5],1430 ng/mL
same,concentration at 2 h,[2]; [6],1950 ng/mL
same,concentration at 4 h,[2]; [5],1530 ng/mL
same,concentration at 4 h,[2]; [6],1250 ng/mL
same,concentration at 6 h,[2]; [5],1640 ng/mL
same,concentration at 6 h,[2]; [6],1390 ng/mL
same,concentration at 8 h,[2]; [5],1730 ng/mL
same,concentration at 8 h,[2]; [6],1740 ng/mL
same,concentration at 24 h,[2]; [5],2500 ng/mL
same,concentration at 1 h,[2]; [7],2040 ng/mL
same,concentration at 1 h,[2]; [8],2630 ng/mL
same,concentration at 2 h,[2]; [7],2310 ng/mL
same,concentration at 4 h,[2]; [7],5210 ng/mL
same,concentration at 4 h,[2]; [8],4540 ng/mL
same,concentration at 6 h,[2]; [7],4300 ng/mL
same,concentration at 6 h,[2]; [8],3550 ng/mL
same,concentration at 8 h,[2]; [7],5660 ng/mL
same,concentration at 8 h,[2]; [8],6390 ng/mL
same,concentration at 24 h,[2]; [7],8150 ng/mL
same,concentration at 24 h,[2]; [8],5590 ng/mL
same,concentration at 1 h,[2]; [9],216 ng/mL
same,concentration at 1 h,[2]; [10],216 ng/mL
same,concentration at 2 h,[2]; [9],276 ng/mL
same,concentration at 2 h,[2]; [10],327 ng/mL
same,concentration at 4 h,[2]; [9],378 ng/mL

# Reference: US20220202799A1, “PHARMACEUTICAL FORMULATIONS CONTAINING P2Y14 ANTAGONISTS” (priority 2019, published 2022)
